Source: PMC11981944 (Nature, 2025)
Like-named read-outs stand apart in the source and are kept apart here.

Tests used:
SARS-CoV-2 = type: cell-based
SARS-CoV-2 USA-WA1/2020 = system: SARS-CoV-2 USA-WA1/2020; design: species or system Syrian hamsters (Mesocricetus auratus); settings: hamster, in vivo
SARS-CoV-2 B.1.351 = type: in vivo; settings: SCID mice, no ritonavir
[1] = system: SARS-CoV-2 (strain BavPat1/2020); type: cell-based

Row | Compound | antiviral activity (in words) (SARS-CoV-2) | lung parenchyma histology (in words) (SARS-CoV-2 USA-WA1/2020) | antiviral activity in vivo (in words) (SARS-CoV-2 B.1.351; 100 mg per kg twice a day) | antiviral activity in vivo (in words) (SARS-CoV-2 B.1.351; three-fold higher dose (300 mg per kg twice a day)) | DMVs by TEM (in words) [1]
1 | N#C[C@@]1(c2ccc3c(N)ncnn23)O[C@H](CO)[C@@H](O)[C@H]1O [GS-441524] | micromolar range |  |  |  | 
2 | CC(C)(C)[C@H](NC(=O)C(F)(F)F)C(=O)N1C[C@H]2[C@@H]([C@H]1C(=O)N[C@H](C#N)C[C@@H]1CCNC1=O)C2(C)C [Nirmatrelvir] |  | nearly normal | devoid of antiviral activity | effective | no cells producing DMV clusters, virions or concentric membrane stacks could be detected
